According to patent US7122543B2, “Substituted benzoic acid derivatives having NF-κB inhibiting action” (Daiichi Suntory Pharma Co., Ltd., priority 2001, dated 2006):
≈ marks a conversion by molar mass, not a printed value.

These molecules were tested on NF-κB (assay: NF-κB luciferase reporter assay in A549/NF-κBLuc cells stimulated with IL-1β). Conditions: A549/NF-κBLuc cells; compound added 1 hour before IL-1β, 3 hours more incubation; luciferase activity as index.
Type: cell-based, human
Protocol: Effects of Compounds on Human Lung Cancer A549 Cells (A549/NF-κBLuc) Stably Transfected with Luciferase Plasmid (pNFκB-Luc, Stratagene, U.S.A.) Having the NF-κB Regulatory Sequence
Using lipofectamine (Lifetech Oriental K.K., Tokyo), pNFκB-Luc were cotransfected with pSV2neo (Clontech, U.S.A.) into A549 cells (ATCC CCL185) according to the conventional method, and A549/NF-κBLuc stably transfected with pNFκB-Luc were selected by adding G418 sulfate (1 mg/ml, Lifetech Oriental K.K.) to the culture medium.
A compound prepared in an Example was added to A549/NF-κBLuc, then IL-1β which was able to activate the NF-κB was added at 1 hour thereafter and incubation was continued for 3 hours more. It has been made clear by using a luciferase activity as an index that the compound obtained in the Example suppresses the activation of NF-κB by stimulated with IL-1β.

Structure (SMILES)	IC50 value [µg/mL]
COC1=C(OC)C(=O)C(Cc2ccc(-c3ccncc3)c(C(=O)N3CCCCC3)c2)=C(C)C1=O [Example 58b, N-[5-(5,6-Dimethoxy-3-methyl-1,4-benzoquinon-2-yl)methyl-2-(4-pyridyl)benzoyl]piperidine]	45 (≈ 97.7 µM)
COC1=C(OC)C(=O)C(Cc2ccc(-c3ccncc3)c(C(=O)N3CCCCC3)c2)=C(C)C1=O [Example 58a, N-[5-(5,6-Dimethoxy-3-methyl-1,4-benzoquinon-2-yl)methyl-2-(4-pyridyl)benzoyl]piperidine]	15 (≈ 32.6 µM)
COC1=C(OC)C(=O)C(Cc2ccc(-c3ccncc3)c(C(=O)N[C@@H](C)c3ccccc3)c2)=C(C)C1=O [Example 74b, (S)-N-[5-(5,6-Dimethoxy-3-methyl-1,4-benzoquinon-2-yl)methyl-2-(4-pyridyl)benzoyl]-1-phenylethylamine]	>45

Same assay, conditions: A549/NF-κBLuc cells; word printed in the IC50 column instead of a value

Structure (SMILES)	IC50 value (result in words)
COc1c(C)c(Cc2ccc(C(=O)O)c(-c3cccnc3)c2)c(OC)c(OC)c1OC [Example 12, 4-(3,4,5,6-Tetramethoxy-2-methylbenzyl)-2-(3-pyridyl) benzoic acid]	toxic

Same assay, conditions: Homo sapiens, A549, A549/NF-κBLuc cells; compound added 1 hour before IL-1β, 3 hours more incubation; luciferase activity as index

Structure (SMILES)	IC50 [µg/mL]
COC1=C(OC)C(=O)C(Cc2ccc(-c3ccncc3)c(C(=O)N[C@H](C)c3ccccc3)c2)=C(C)C1=O [Example 75a, (R)-N-[5-(5,6-Dimethoxy-3-methyl-1,4-benzoquinon-2-yl)methyl-2-(4-pyridyl)benzoyl]-1-phenylethylamine]	> 45
COC1=C(OC)C(=O)C(Cc2ccc(-c3cccnc3)c(C(=O)N3CCOCC3)c2)=C(C)C1=O [Example 55, N-[5-(5,6-Dimethoxy-3-methyl-1,4-benzoquinon-2-yl)methyl-2-(3-pyridyl)benzoyl]morpholine]	> 45
COC1=C(OC)C(=O)C(Cc2ccc(-c3ccncc3)c(C(=O)NC3CC3)c2)=C(C)C1=O [Example 78a, N-[5-(5,6-Dimethoxy-3-methyl-1,4-benzoquinon-2-yl)methyl-2-(4-pyridyl)benzoyl]cyclopropyl-amine]	> 45
COC1=C(OC)C(=O)C(Cc2ccc(-c3ccccc3)c(C(=O)O)c2)=C(C)C1=O [Example 37, 5-(5,6-Dimethoxy-3-methyl-1,4-benzoquinon-2-yl)methyl-2-phenylbenzoic acid]	> 45
COC1=C(OC)C(=O)C(Cc2ccc(-c3cccnc3)c(C(=O)N3CCCCC3)c2)=C(C)C1=O [Example 54, N-[5-(5,6-Dimethoxy-3-methyl-1,4-benzoquinon-2-yl)methyl-2-(3-pyridyl)benzoyl]piperidine]	15
COC1=C(OC)C(=O)C(Cc2ccc(-c3ccccc3)c(C(=O)N3CCOCC3)c2)=C(C)C1=O [Example 51, N-[5-(5,6-Dimethoxy-3-methyl-1,4-benzoquinon-2-yl)methyl-2-phenylbenzoyl]morpholine]	> 30
COC1=C(OC)C(=O)C(Cc2ccc(C(=O)Nc3ccc(C(F)(F)F)cc3)c(-c3ccccc3)c2)=C(C)C1=O [Example 45, N-[4-(5,6-Dimethoxy-3-methyl-1,4-benzoquinon-2-yl)methyl-2-phenylbenzoyl]-4-trifluoromethyl-aniline]	> 30
COC1=C(OC)C(=O)C(Cc2ccc(-c3cccc(OC)c3)c(C(=O)Nc3ccc(OC)cc3)c2)=C(C)C1=O [Example 67, N-[5-(5,6-Dimethoxy-3-methyl-1,4-benzoquinon-2-yl)methyl-2-(3-methoxyphenyl)benzoyl]-4-methoxyaniline]	> 45
COC1=C(OC)C(=O)C(Cc2ccc(-c3ccncc3)c(C(=O)Nc3ccc(C(F)(F)F)cc3)c2)=C(C)C1=O [Example 61, N-[5-(5,6-Dimethoxy-3-methyl-1,4-benzoquinon-2-yl)methyl-2-(4-pyridyl)benzoyl]-4-trifluoromethylaniline]	> 30
COC1=C(OC)C(=O)C(Cc2ccc(C(=O)O)c(-c3cccnc3)c2)=C(C)C1=O [Example 36, 4-(5,6-Dimethoxy-3-methyl-1,4-benzoquinon-2-yl)methyl-2-(3-pyridyl)benzoic acid]	> 15
COC1=C(OC)C(=O)C(Cc2ccc(-c3ccncc3)c(C(=O)N3CCOCC3)c2)=C(C)C1=O [Example 59, N-[5-(5,6-Dimethoxy-3-methyl-1,4-benzoquinon-2-yl)methyl-2-(4-pyridyl)benzoyl]morpholine]	> 45
COc1c(C)c(Cc2ccc(-c3cccnc3)c(C(=O)O)c2)c(OC)c(OC)c1OC [Example 14, 5-(3,4,5,6-Tetramethoxy-2-methylbenzyl)-2-(3-pyridyl)benzoic acid]	> 15
COc1ccccc1-c1ccc(Cc2c(C)c(OC)c(OC)c(OC)c2OC)cc1C(=O)O [Example 18, 5-(3,4,5,6-Tetramethoxy-2-methylbenzyl)-2-(2-methoxyphenyl)benzoic acid]	> 15
COc1cccc(-c2ccc(Cc3c(C)c(OC)c(OC)c(OC)c3OC)cc2C(=O)O)c1 [Example 17, 5-(3,4,5,6-Tetramethoxy-2-methylbenzyl)-2-(3-methoxyphenyl)benzoic acid]	> 15
COC1=C(OC)C(=O)C(Cc2ccc(-c3ccncc3)c(C(=O)NC3CCCCC3)c2)=C(C)C1=O [Example 76a, N-[5-(5,6-Dimethoxy-3-methyl-1,4-benzoquinon-2-yl)methyl-2-(4-pyridyl)benzoyl]cyclohexyl-amine]	> 45
COC1=C(OC)C(=O)C(Cc2ccc(C(=O)Nc3ccc(C(F)(F)F)cc3)c(-c3cccnc3)c2)=C(C)C1=O [Example 48, N-[4-(5,6-Dimethoxy-3-methyl-1,4-benzoquinon-2-yl)methyl-2-(3-pyridyl)benzoyl]-4-trifluoromethylaniline]	> 30
COC1=C(OC)C(=O)C(Cc2ccc(-c3ccncc3)c(C(=O)Nc3ccc(OC)cc3)c2)=C(C)C1=O.Cl [Example 60b, N-[5-(5,6-Dimethoxy-3-methyl-1,4-benzoquinon-2-yl)methyl-2-(4-pyridyl)benzoyl]-4-methoxyaniline]	> 30
COC1=C(OC)C(=O)C(Cc2ccc(-c3ccccc3)c(C(=O)Nc3ccc(OC)cc3)c2)=C(C)C1=O [Example 52, N-[5-(5,6-Dimethoxy-3-methyl-1,4-benzoquinon-2-yl)methyl-2-phenylbenzoyl]-4-methoxyaniline]	> 45
COC1=C(OC)C(=O)C(Cc2ccc(-c3cccc(OC)c3)c(C(=O)N3CCCCC3)c2)=C(C)C1=O [Example 65, N-[5-(5,6-Dimethoxy-3-methyl-1,4-benzoquinon-2-yl)methyl-2-(3-methoxyphenyl)benzoyl]-piperidine]	40
COC1=C(OC)C(=O)C(Cc2ccc(C(=O)O)c(-c3ccccc3)c2)=C(C)C1=O [Example 35, 4-(5,6-Dimethoxy-3-methyl-1,4-benzoquinon-2-yl)methyl-2-phenylbenzoic acid]	> 15
COC1=C(OC)C(=O)C(Cc2ccc(-c3ccccc3)c(C(=O)Nc3ccc(C(F)(F)F)cc3)c2)=C(C)C1=O [Example 53, N-[5-(5,6-Dimethoxy-3-methyl-1,4-benzoquinon-2-yl)methyl-2-phenylbenzoyl]-4-trifluoromethylaniline]	> 30
COC1=C(OC)C(=O)C(Cc2ccc(-c3ccncc3)c(C(=O)O)c2)=C(C)C1=O [Example 39, 5-(5,6-Dimethoxy-3-methyl-1,4-benzoquinon-2-yl)methyl-2-(4-pyridyl)benzoic acid]	> 30
COc1c(C)c(Cc2ccc(-c3ccncc3)c(C(=O)O)c2)c(OC)c(OC)c1OC [Example 15, 5-(3,4,5,6-Tetramethoxy-2-methylbenzyl)-2-(4-pyridyl)benzoic acid]	> 15
COC1=C(OC)C(=O)C(Cc2ccc(C(=O)Nc3ccc(OC)cc3)c(-c3cccnc3)c2)=C(C)C1=O [Example 49, N-[4-(5,6-Dimethoxy-3-methyl-1,4-benzoquinon-2-yl)methyl-2-(3-pyridyl)benzoyl]-4-methoxy-aniline]	24
COC1=C(OC)C(=O)C(Cc2ccc(-c3ccncc3)c(C(=O)NC3CCCC3)c2)=C(C)C1=O [Example 77a, N-[5-(5,6-Dimethoxy-3-methyl-1,4-benzoquinon-2-yl)methyl-2-(4-pyridyl)benzoyl]cyclopentylamine]	> 45
COC1=C(OC)C(=O)C(Cc2ccc(-c3cccnc3)c(C(=O)O)c2)=C(C)C1=O [Example 38, 5-(5,6-Dimethoxy-3-methyl-1,4-benzoquinon-2-yl)methyl-2-(3-pyridyl)benzoic acid]	> 45
COC1=C(OC)C(=O)C(Cc2ccc(-c3ccc(OC)cc3)c(C(=O)Nc3ccc(OC)cc3)c2)=C(C)C1=O [Example 64, N-[5-(5,6-Dimethoxy-3-methyl-1,4-benzoquinon-2-yl)methyl-2-(4-methoxyphenyl]benzoyl)-4-methoxyaniline]	12
COC1=C(OC)C(=O)C(Cc2cccc(C(=O)Nc3ccc(C(F)(F)F)cc3)c2-c2ccncc2)=C(C)C1=O [Example 73, N-[3-(45,6-Dimethoxy-3-methyl-1,4-benzoquinon-2-yl)methyl-2-(4-pyridyl)benzoyl]-4-trifluoromethylaniline]	> 30
COC1=C(OC)C(=O)C(Cc2ccc(-c3cccc(OC)c3)c(C(=O)N3CCOCC3)c2)=C(C)C1=O [Example 66, N-[5-(5,6-Dimethoxy-3-methyl-1,4-benzoquinon-2-yl)methyl-2-(3-methoxyphenyl)benzoyl]-morpholine]	42

Same assay, conditions: Homo sapiens, A549, same value printed in parentheses in μM; A549/NF-κBLuc cells, IL-1β stimulation, luciferase activity

Structure (SMILES)	IC50 [µM]
COC1=C(OC)C(=O)C(Cc2ccc(-c3cccnc3)c(C(=O)N3CCCCC3)c2)=C(C)C1=O [Example 54, N-[5-(5,6-Dimethoxy-3-methyl-1,4-benzoquinon-2-yl)methyl-2-(3-pyridyl)benzoyl]piperidine]	33
COC1=C(OC)C(=O)C(Cc2ccc(-c3cccc(OC)c3)c(C(=O)N3CCCCC3)c2)=C(C)C1=O [Example 65, N-[5-(5,6-Dimethoxy-3-methyl-1,4-benzoquinon-2-yl)methyl-2-(3-methoxyphenyl)benzoyl]-piperidine]	82
COC1=C(OC)C(=O)C(Cc2ccc(-c3ccc(OC)cc3)c(C(=O)Nc3ccc(OC)cc3)c2)=C(C)C1=O [Example 64, N-[5-(5,6-Dimethoxy-3-methyl-1,4-benzoquinon-2-yl)methyl-2-(4-methoxyphenyl]benzoyl)-4-methoxyaniline]	23
COC1=C(OC)C(=O)C(Cc2ccc(-c3cccc(OC)c3)c(C(=O)N3CCOCC3)c2)=C(C)C1=O [Example 66, N-[5-(5,6-Dimethoxy-3-methyl-1,4-benzoquinon-2-yl)methyl-2-(3-methoxyphenyl)benzoyl]-morpholine]	85

Same assay, conditions: same value printed in parentheses in μM; A549/NF-κBLuc cells, IL-1β stimulation, luciferase activity

Structure (SMILES)	IC50 [µM]
COC1=C(OC)C(=O)C(Cc2ccc(-c3ccncc3)c(C(=O)N3CCCCC3)c2)=C(C)C1=O [Example 58b, N-[5-(5,6-Dimethoxy-3-methyl-1,4-benzoquinon-2-yl)methyl-2-(4-pyridyl)benzoyl]piperidine]	81
COC1=C(OC)C(=O)C(Cc2ccc(-c3ccncc3)c(C(=O)N3CCCCC3)c2)=C(C)C1=O [Example 58a, N-[5-(5,6-Dimethoxy-3-methyl-1,4-benzoquinon-2-yl)methyl-2-(4-pyridyl)benzoyl]piperidine]	30
